Experimental data published in patent publication US11285139B2, “Treatment of CNS conditions” (Takeda Pharmaceutical Company Limited, priority 2017, dated 2022).

Key:
Format in all cases: in vivo
CH24H = molecular target: T1, CH24H (Homo sapiens, UniProt Q9Y6A2); assay: single-dose positron emission tomography (PET) target occupancy study
T1 construct: single-dose positron emission tomography (PET) target occupancy study; from tissue; host or cells: brain of study participants, in vivo (brain is inferred from the statement that CH24H is expressed in neurons)
Description: (§1) Four clinical studies including a single-rising dose (SRD) first-in-human study, a single-dose positron emission tomography (PET) target occupancy study, a multiple-rising dose (MRD) study, and a single-dose relative bioavailability (BA) and food-effect study were conducted.
The pharmacokinetics (PK) and pharmacodynamics (PD) of (4-benzyl-4-hydroxypiperidin-1-yl) (2,4′-bipyridin-3-yl)methanone were characterized in these studies.

Scn1a+/−mice = assay: spontaneous seizures in Scn1a+/− mouse model of Dravet syndrome; details: chow containing 0.02% (w/w) for 2 weeks, started at 17-18 days after birth; control group 23.9%
Description: The following Example provides data from a heterozygous deletion of a Scn1a mouse model (Scn1a+/−mice) of Dravet syndrome, a developmental epileptic encephalopathy subtype. Myoclonic and generalized tonic-clonic seizures are observed, which correlate to symptoms in humans. Therefore, (4-benzyl-4-hydroxypiperidin-1-yl) (2,4′-bipyridin-3-yl)methanone was tested in Scn1a+/−mice for its potential effects on seizure. At 17-18 days after birth, mice were weaned and started on treatment either with control chow or chow containing (4-benzyl-4-hydroxypiperidin-1-yl) (2,4′-bipyridin-3-yl)methanone 0.02% (w/w) for 2 weeks. Spontaneous seizures were continuously monitored. The seizure free rate during the study period for the control group was 23.9%.

[1] = single-rising dose (SRD) first-in-human study, safety evaluation
Description: as §1

T1 sequence (Q9Y6A2 whole entry): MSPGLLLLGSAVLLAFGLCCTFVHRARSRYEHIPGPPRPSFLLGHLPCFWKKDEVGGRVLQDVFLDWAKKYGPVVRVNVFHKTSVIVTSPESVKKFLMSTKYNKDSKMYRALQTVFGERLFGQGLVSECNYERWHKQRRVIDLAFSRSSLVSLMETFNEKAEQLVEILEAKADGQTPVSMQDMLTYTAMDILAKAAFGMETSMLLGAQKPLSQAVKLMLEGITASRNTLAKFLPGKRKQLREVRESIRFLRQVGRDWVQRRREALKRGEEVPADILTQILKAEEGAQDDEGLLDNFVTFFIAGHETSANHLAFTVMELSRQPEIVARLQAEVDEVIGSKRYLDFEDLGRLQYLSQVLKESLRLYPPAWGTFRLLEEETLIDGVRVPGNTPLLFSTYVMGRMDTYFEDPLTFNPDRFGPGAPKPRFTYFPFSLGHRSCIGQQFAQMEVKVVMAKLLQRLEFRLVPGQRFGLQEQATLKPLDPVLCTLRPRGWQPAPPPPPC

O=C(c1cccnc1-c1ccncc1)N1CCC(O)(Cc2ccccc2)CC1 [(4-benzyl-4-hydroxypiperidin-1-yl) (2,4′-bipyridin-3-yl)methanone]
plasma 24HC concentrations (CH24H): dose-dependent decreases
PET occupancy measurements (CH24H; correlated with circulating levels of 24HC): dose- and time-dependent
seizure free rate during the study period (Scn1a+/−mice): 91.7%
serious pretreatment events or post treatment adverse events ([1]; all cohorts, 15-1350 mg single oral dose): No serious pretreatment events or post treatment adverse events were reported
safety and tolerability ([1]; doses up to 1350 mg single dose, healthy male and female subjects): generally safe and well tolerated
